System: MDA-MB-231 cells
Assay: DOX cytotoxicity after delivery of DOX-loaded MSNs, trypan blue exclusion
Format: cell-based
Conditions: DOX loaded into MSNs delivered by the microfluidic system, after 6 hours
Method: In the experiment, doxorubicin (DOX), an anticancer drug, was loaded into MSNs and the MSNs were delivered into MDA-MB-231 cells.
Referring to FIG. 31, DOX cytotoxicity to MDA-MB-231 cells was measured by the trypan blue exclusion method, and it can be seen that approximately 85% of cancer cells were killed after 6 hours.

SMILES: COc1cccc2c1C(=O)c1c(O)c3c(c(O)c1C2=O)C[C@@](O)(C(=O)CO)C[C@@H]3O[C@H]1C[C@H](N)[C@H](O)[C@H](C)O1 [DOX, doxorubicin]
- cancer cells killed: approximately 85%
